Data as given in patent US12059467B2, “Low-toxicity and high-efficiency orthoester mixture pharmaceutical adjuvant, preparation method thereof, and topical sustained release drug delivery formulation including same” (ANHUI UNIVERSITY, priority 2022, dated 2024).
“Also recorded” adds a separate entry of the source. Blank lines part the entries; values can stand above or below the molecule they belong to.

Tests used:
pain model rats = test: Analgesic effect in pain model rats; assay type: in vivo; conditions: subcutaneous, 200 mg/kg based on a mepivacaine content
Description: Mepivacaine and the prepared mepivacaine injection (E-A′-Mep) each were subcutaneously injected into different pain model rats at a dose of 200 mg/kg based on a mepivacaine content. A time required for a rat to have a normal response to deep pain and electric stimulation and a time required for a rat to return from a motor weakness state to a normal state were then recorded; and when half of rats returned to a normal state, the test was stopped.

mice [1] = test: Respiratory system and blood oxygen saturation tests; assay type: in vivo; conditions: subcutaneous, 15,000 mg/kg, measured daily in the following week
Description: Different formulations each were subcutaneously injected into different mice at a dose of 15,000 mg/kg, and a breathing rate and a blood oxygen saturation of mice in each group were measured daily by a small animal non-invasive pulse oximeter in the following week.

mice [2] = test: Acute toxicity test (LD50, MTD); assay type: in vivo
Description: With OE-2 in the patent application 202111500943.7 as a reference formulation, the OE-1′ obtained in Example 1 was subjected to an acute toxicity test, and experimental steps were as follows:
OE-2 and 0E-1′ each were administered to different mice at a time through intragastric administration, subcutaneous injection, and intraperitoneal injection with a dose gradient from 1 mg/kg to 50,000 mg/kg; poisoning characteristics of mice within 24 h were observed, and a mortality rate was counted; and an accurate LD50 value was calculated according to the probability unit method and the karber's method, and finally experimental groups were compared in terms of acute toxicity.
Note: The larger the LD50 value in the experimental group, the smaller the acute toxicity.

[3] = test system: red blood cell (RBC) suspension; test: Hemolysis test; assay type: cell-based; conditions: 3 mg/mL to 15 mg/mL, 37° C., 3 h; hemolysis rate lower than 5% means no hemolytic effect
Description: Preparation of test samples: negative control: 2.5 mL of a red blood cell (RBC) suspension+2.5 mL of a 0.9% sodium chloride injection; positive control: 2.5 mL of an RBC suspension+2.5 mL of distilled water; and experimental group: 2.5 mL of an RBC suspension+2.2 mL of a 0.9% sodium chloride injection+0.3 mL of a formulation to be tested (3 mg/mL to 15 mg/mL).
Each sample was incubated in a 37° C. thermostatic water bath for 3 h and then centrifuged (3,000 r/min, 5 min) to obtain a supernatant, the supernatant was allowed to stand at room temperature for 30 min, and the absorbance of the sample was determined at 540 nm by a microplate reader; and the influence of plasma contents was eliminated with the absorbance of the negative control group, and then a hemolysis rate (%) of the experimental group could be calculated according to the following formula: HL%=At/Apc×100%, where At represents an absorbance value of a test sample and APC represents an absorbance value of the positive control. When a hemolysis rate is lower than 5%, it means that the formulation of the experimental group has no hemolytic effect at a corresponding concentration.

mice [4] = test: Cardiovascular system-associated safety evaluation; assay type: in vivo; conditions: subcutaneous, 15,000 mg/kg, measured daily in the following week
Description: Different formulations each were subcutaneously injected into different mice at a dose of 15,000 mg/kg, and a blood pressure and a heart rate of mice in each group were measured daily by […] in the following week.

mice [5] = test: Chronic toxicity test; assay type: in vivo; conditions: subcutaneous, 15,000 mg/kg, 6 months
Description: Different formulations each were subcutaneously injected into different mice at a dose of 15,000 mg/kg, and the continuous behavioral observation, routine blood test, biochemical index test, and organ weight measurement were conducted for 6 months.

[6] = Alcohol metabolite biodistribution test; assay type: in vivo, mice; conditions: subcutaneous, 15,000 mg/kg; urine, blood, heart, liver, spleen, lung, kidney; gas chromatograph
Description: Preparation of standard solutions: an appropriate amount of methanol or ethanol was accurately weighed and prepared with water into a 10.0 mg/mL standard solution as a stock solution, and the stock solution was further diluted into aqueous solutions with concentrations of 0.10 mg/mL, 0.20 mg/mL, 0.50 mg/mL, 0.80 mg/mL, 1.00 mg/mL, 2.00 mg/mL, and 3.00 mg/mL, respectively. Preparation of an internal standard solution: an appropriate amount of tert-butyl alcohol (TBA) was accurately weighed and prepared with water into a 5.0 mg/mL TBA stock solution, the TBA stock solution was diluted with water to obtain a 40.0 μg/mL TBA working solution, and the TBA working solution was refrigerated and stored in a closed manner.
Different formulations each were subcutaneously injected into different mice at a dose of 15,000 mg/kg, and then the urine, blood, heart, liver, spleen, lung, and kidney were collected from the mice at different time points. 0.10 mL of each of the standard solutions, urine, blood, and tissue extracts was taken and mixed with 0.50 mL of a 40.0 μg/mL TBA working solution, and a resulting mixture was tested by a gas chromatograph. A standard curve with a linear regression coefficient of 0.999 or higher was plotted with results of the standard solutions, and then a methanol or ethanol content in each sample was calculated. […]

Hypertension model rats = test: Antihypertensive effect in hypertension model rats; conditions: 40 mg/kg based on an irbesartan content; irbesartan orally, E-1′-Irbe subcutaneous injection
Description: Hypertension model rats were treated with irbesartan and the prepared irbesartan injection (E-1′-Irbe) at a dose of 40 mg/kg based on an irbesartan content, where the irbesartan was administered orally and the irbesartan injection (E-1′-Irbe) was administered through subcutaneous injection. A drug concentration in blood and a blood pressure level were detected at a preset time point.

mice [7] = test: Antibody-producing effect (IgG) in mice; assay type: in vivo; conditions: subcutaneous, 50 mg/kg based on an ovalbumin content on day 1 and day 15
Description: Ovalbumin and the prepared ovalbumin injection (E-C′-Ova) were subcutaneously injected into different mice at a dose of 50 mg/kg based on an ovalbumin content on day 1 and day 15, and an IgG concentration was detected.

Molecule: Cc1cccc(C)c1NC(=O)C1CCCCN1C (centres unmarked) [Normal saline (NS) + mepivacaine, mepivacaine]
Time required for half of rats to have a normal response, Deep pain (pain model rats): 60 min
Time required for half of rats to have a normal response, Electric stimulation (pain model rats): 60 min
Time required for half of rats to have a normal response, Motor weakness (pain model rats): 60 min

Molecule: CCOC1OCC(COCC2COC(OCC)O2)O1 (centres unmarked) [OE-1′, 4,4′-(Oxybis(Methylene))Bis(2-Ethoxy-1,3-Dioxolane)]
blood oxygen saturation (mice [1]): at normal levels
breathing rate (mice [1]): at normal levels
tolerance dose of mice (MTD) (mice [2]; mouse, in vivo): higher than a tolerance dose of mice for OE-2
LD50 value (mice [2]; single administration, intragastric, subcutaneous, intraperitoneal, mortality within 24 h): significantly higher than an LD50 value of OE-2
hemolytic effect (hemolysis rate) [3]: does not lead to a hemolytic effect
cardiovascular function (blood pressure and heart rate) (mice [4]): at a normal level
organ mass (mice [5]): significantly higher than an organ mass of mice in the OE-2 group
methanol or ethanol content in each sample [6]: a trace amount of ethanol is detected in each sample

drug concentration in blood (Hypertension model rats): decreases rapidly
Molecule: CCCCC1=NC2(CCCC2)C(=O)N1Cc1ccc(-c2ccccc2-c2nnn[nH]2)cc1 [irbesartan]
blood pressure level (Hypertension model rats): can reduce a blood pressure; also recorded: rebounds rapidly

B1: ovalbumin (protein, UniProt P01012 2-386, looked up)
Ovalbumin: GSIGAASMEFCFDVFKELKVHHANENIFYCPIAIMSALAMVYLGAKDSTRTQINKVVRFDKLPGFGDSIEAQCGTSVNVHSSLRDILNQITKPNDVYSFSLASRLYAEERYPILPEYLQCVKELYRGGLEPINFQTAADQARELINSWVESQTNGIIRNVLQPSSVDSQTAMVLVNAIVFKGLWEKAFKDEDTQAMPFRVTEQESKPVQMMYQIGLFRVASMASEKMKILELPFASGTMSMLVLLPDEVSGLEQLESIINFEKLTEWTSSNVMEERKIKVYLPRMKMEEKYNLTSVLMAMGITDVFSSSANLSGISSAESLKISQAVHAAHAEINEAGREVVGSAEAGVDAASVSEEFRADHPFLFCIKHIATNAVLFFGRCVSP
notes: ovalbumin alone, injected subcutaneously as comparator
IgG concentration (mice [7]): decreases rapidly
